Source: PubChem BioAssay AID248 (DTP/NCI, 2004)
“And” between values parts separate entries of the source, which are not always exact repeats. Identical values can stand only once. Inconclusive results and toxic doses are left out. No stated cut-off is given here; in the data, active means T/C of 150% or more; inactive means T/C below 125%.

System: L1210 leukemia ip in BDF1 mice, survival T/C
Assay: NCI In Vivo Anticancer Drug Screen. Data for tumor model L1210 Leukemia (intraperitoneal) in B6D2F1 (BDF1) mice
Conditions: endpoint: mean survival time, higher = longer survival
Outline: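 Tumor was transplanted into mice, which were then dosed with test compound or vehicle alone. Survival was recorded for each group, and the treated figure was expressed relative to the control figure.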

[1] = dose: 100.0 mg/kg/injection, schedule: Q04DX003 (ip), vehicle: Klucel (hydroxypropylcellulose) (HPC)
[2] = dose: 200.0 mg/kg/injection, schedule: Q01DX009 (ip), vehicle: Klucel (hydroxypropylcellulose) (HPC)
[3] = dose: 200.0 mg/kg/injection, schedule: Q04DX003 (ip), vehicle: Klucel (hydroxypropylcellulose) (HPC)
[4] = dose: 400.0 mg/kg/injection, schedule: Q04DX003 (ip), vehicle: Klucel (hydroxypropylcellulose) (HPC)
[5] = dose: 100.0 mg/kg/injection, schedule: Q04DX003 (ip), vehicle: saline with Tween-80
[6] = dose: 200.0 mg/kg/injection, schedule: Q04DX003 (ip), vehicle: saline with Tween-80
[7] = dose: 400.0 mg/kg/injection, schedule: Q04DX003 (ip), vehicle: saline with Tween-80
[8] = dose: 100.0 mg/kg/injection, schedule: Q01DX001 (ip), vehicle: Klucel (hydroxypropylcellulose) (HPC)
[9] = dose: 200.0 mg/kg/injection, schedule: Q01DX001 (ip), vehicle: Klucel (hydroxypropylcellulose) (HPC)
[10] = dose: 400.0 mg/kg/injection, schedule: Q01DX001 (ip), vehicle: Klucel (hydroxypropylcellulose) (HPC)
[11] = dose: 100.0 mg/kg/injection, schedule: Q04DX002 (ip), vehicle: Klucel (hydroxypropylcellulose) (HPC)
[12] = dose: 200.0 mg/kg/injection, schedule: Q04DX002 (ip), vehicle: Klucel (hydroxypropylcellulose) (HPC)
[13] = dose: 100.0 mg/kg/injection, schedule: Q01DX001 (ip), vehicle: saline
[14] = dose: 200.0 mg/kg/injection, schedule: Q01DX001 (ip), vehicle: saline
[15] = dose: 100.0 mg/kg/injection, schedule: Q01DX009 (ip), vehicle: Klucel (hydroxypropylcellulose) (HPC)
[16] = dose: 400.0 mg/kg/injection, schedule: Q01DX009 (ip), vehicle: Klucel (hydroxypropylcellulose) (HPC)
[17] = dose: 400.0 mg/kg/injection, schedule: Q01DX001 (ip), vehicle: saline
[18] = dose: 100.0 mg/kg/injection, schedule: Q01DX009 (ip), vehicle: saline
[19] = dose: 100.0 mg/kg/injection, schedule: Q04DX003 (ip), vehicle: saline
[20] = dose: 200.0 mg/kg/injection, schedule: Q01DX009 (ip), vehicle: saline
[21] = dose: 200.0 mg/kg/injection, schedule: Q04DX003 (ip), vehicle: saline
[22] = dose: 400.0 mg/kg/injection, schedule: Q01DX009 (ip), vehicle: saline
[23] = dose: 400.0 mg/kg/injection, schedule: Q04DX003 (ip), vehicle: saline

Measured: T/C

O=[N+]([O-])c1ccc(S(=O)(=O)OCc2ccccc2OS(=O)(=O)c2ccc([N+](=O)[O-])cc2)cc1
inactive: dose: 25.0 mg/kg/injection, schedule: Q01DX009 (ip), vehicle: saline sonified 103 % of control | dose: 50.0 mg/kg/injection, schedule: Q01DX009 (ip), vehicle: saline sonified 95 % of control | dose: 100.0 mg/kg/injection, schedule: Q01DX009 (ip), vehicle: saline sonified 100 % of control | [1] 91 % of control

C/C=C(/Cl)c1c(C)cc(C)c(CC(=O)O)c1C
inactive: [1] 92 % of control | dose: 130.0 mg/kg/injection, schedule: Q01DX009 (ip), vehicle: Klucel (hydroxypropylcellulose) (HPC) 110 % of control | [2] 114 % of control | [3] 90 % of control | [4] 105 % of control

[Se]=P(C#Cc1ccccc1)(C#Cc1ccccc1)C#Cc1ccccc1
inactive: dose: 100.0 mg/kg/injection, schedule: Q01DX001 (ip), vehicle: saline with Tween-80 87 % of control | dose: 200.0 mg/kg/injection, schedule: Q01DX001 (ip), vehicle: saline with Tween-80 93 % of control | dose: 400.0 mg/kg/injection, schedule: Q01DX001 (ip), vehicle: saline with Tween-80 87 % of control

CCCCCCCCCCCCCCCCCCCOc1ccc(OCCCCCCCC)cc1
inactive: [5] 94 % of control | [6] 92 % of control | [7] 94 % of control

CCOC(=O)c1ccccc1N=Nc1cc(OC)c(N)cc1OC
inactive: dose: 5.0 mg/kg/injection, schedule: Q01DX001 (ip), vehicle: other 101 % of control | dose: 10.0 mg/kg/injection, schedule: Q01DX001 (ip), vehicle: other 111 % of control | dose: 20.0 mg/kg/injection, schedule: Q01DX001 (ip), vehicle: other 114 % of control

Cc1ccc(S(=O)(=O)N(C)c2cc(Cl)c(I)cc2Cl)cc1
inactive: [8] 97 % of control | [1] 93 % of control and 94 % of control | [9] 97 % of control | [3] 98 % of control | [10] 94 % of control | [4] 97 % of control and 98 % of control

CC1C(c2ccccc2)OCCN1CN1C(=O)c2ccccc2C1=O (stereo unspecified)
inactive: [11] 100 % of control | [12] 104 % of control | dose: 400.0 mg/kg/injection, schedule: Q04DX002 (ip), vehicle: Klucel (hydroxypropylcellulose) (HPC) 104 % of control

COc1ccc(O)cc1C
inactive: dose: 100.0 mg/kg/injection, schedule: Q04DX003 (ip), vehicle: other 104 % of control | dose: 200.0 mg/kg/injection, schedule: Q04DX003 (ip), vehicle: other 107 % of control | dose: 400.0 mg/kg/injection, schedule: Q04DX003 (ip), vehicle: other 117 % of control

S=P(NCc1cccc(CNP(=S)(N2CC2)N2CC2)c1)(N1CC1)N1CC1
inactive: dose: 75.0 mg/kg/injection, schedule: Q01DX001 (ip), vehicle: carboxymethylcellulose (CMC) 98 % of control | dose: 150.0 mg/kg/injection, schedule: Q01DX001 (ip), vehicle: carboxymethylcellulose (CMC) 98 % of control | dose: 300.0 mg/kg/injection, schedule: Q01DX001 (ip), vehicle: carboxymethylcellulose (CMC) 93 % of control

CC(C)(CO)NCc1ccc(Cl)cc1
inactive: [13] 93 % of control | [14] 97 % of control

CNC(=O)Oc1cccc(NC(=O)C2CC2)c1
inactive: [5] 94 % of control | [6] 94 % of control | [7] 96 % of control

CCOC(=O)CC(=O)c1ccccc1F
inactive: [15] 97 % of control | [1] 102 % of control | [2] 103 % of control | [3] 103 % of control | [16] 93 % of control | [4] 100 % of control

COc1ccc(Cl)cc1NC(=O)Nc1ccc(Cl)c(Cl)c1
inactive: [15] 95 % of control | [1] 112 % of control | [2] 92 % of control | [3] 89 % of control | [16] 102 % of control | [4] 109 % of control

O=C(CSc1ccc([N+](=O)[O-])cc1)c1ccccc1
inactive: dose: 50.0 mg/kg/injection, schedule: Q01DX001 (ip), vehicle: saline 104 % of control | [13] 98 % of control | [14] 91 % of control | [17] 96 % of control

CC(C)SC=O
inactive: dose: 50.0 mg/kg/injection, schedule: Q01DX009 (ip), vehicle: saline 94 % of control | [18] 93 % of control | [19] 100 % of control | [20] 93 % of control | [21] 105 % of control | [22] 89 % of control | [23] 100 % of control

N#Cc1c(N)ncn1C1OC(CO)C(O)C1O (stereo unspecified)
inactive: [13] 96 % of control | [14] 104 % of control | [17] 109 % of control

CC(C)(O)C#CC(C)(C)O
inactive: [18] 115 % of control | [20] 110 % of control | [22] 110 % of control

O=C(O)C1C2CC3OCC1C3C2 (stereo unspecified)
inactive: dose: 100.0 mg/kg/injection, schedule: Q04DX003 (ip), vehicle: alkali diluted with saline 104 % of control | dose: 200.0 mg/kg/injection, schedule: Q04DX003 (ip), vehicle: alkali diluted with saline 98 % of control | dose: 400.0 mg/kg/injection, schedule: Q04DX003 (ip), vehicle: alkali diluted with saline 93 % of control

CN(C)c1c(-c2ccc(Cl)cc2)cc(-c2ccccc2)[nH]c1=O
inactive: dose: 100.0 mg/kg/injection, schedule: Q01DX001 (ip), vehicle: carboxymethylcellulose (CMC) 97 % of control | dose: 100.0 mg/kg/injection, schedule: Q01DX009 (ip), vehicle: acetone 95 % of control | [19] 89 % of control | dose: 200.0 mg/kg/injection, schedule: Q01DX001 (ip), vehicle: carboxymethylcellulose (CMC) 91 % of control | dose: 200.0 mg/kg/injection, schedule: Q01DX009 (ip), vehicle: acetone 98 % of control | [21] 89 % of control | dose: 400.0 mg/kg/injection, schedule: Q01DX001 (ip), vehicle: carboxymethylcellulose (CMC) 91 % of control | dose: 400.0 mg/kg/injection, schedule: Q01DX009 (ip), vehicle: acetone 93 % of control | [23] 87 % of control

COc1ccc(COC(=O)Nc2cccc(Cl)c2)cc1
inactive: [8] 111 % of control | [15] 93 % of control and 97 % of control | [11] 100 % of control | [1] 108 % of control | [9] 101 % of control | [2] 90 % of control and 92 % of control | [12] 104 % of control | [3] 102 % of control | [10] 95 % of control | [16] 93 % of control and 90 % of control | [4] 111 % of control

CC(=O)CC(C)=O.CCCCC(C[C-]=O)N(CC)CC.[Pd+2] (stereo unspecified)
inactive: dose: 2.4 mg/kg/injection, schedule: Q04DX003 (ip), vehicle: distilled water + Tween-80 97 % of control | dose: 4.7 mg/kg/injection, schedule: Q04DX003 (ip), vehicle: distilled water + Tween-80 101 % of control | dose: 9.4 mg/kg/injection, schedule: Q04DX003 (ip), vehicle: distilled water + Tween-80 98 % of control | dose: 18.8 mg/kg/injection, schedule: Q04DX003 (ip), vehicle: distilled water + Tween-80 90 % of control

Cc1ccc([N+](=O)[O-])cc1N=Nc1ccc(O)c(C(=O)O)c1
inactive: dose: 25.0 mg/kg/injection, schedule: Q04DX003 (ip), vehicle: Klucel (hydroxypropylcellulose) (HPC) 93 % of control | dose: 50.0 mg/kg/injection, schedule: Q04DX003 (ip), vehicle: Klucel (hydroxypropylcellulose) (HPC) 96 % of control | [1] 96 % of control and 88 % of control

COCCOCCOCCOCCOCCN
inactive: [18] 96 % of control | [20] 93 % of control | [22] 98 % of control

N#Cc1nc2c3ccccc3c3ccccc3c2nc1C#N
inactive: dose: 75.0 mg/kg/injection, schedule: Q01DX009 (ip), vehicle: other 90 % of control | dose: 300.0 mg/kg/injection, schedule: Q01DX009 (ip), vehicle: other 104 % of control

Cc1ccc([N+](=O)[O-])cc1NC(=O)Sc1ccccc1O
inactive: [6] 92 % of control | [7] 90 % of control

O=C(O)/C(=C/c1ccccc1)c1ccccc1
inactive: dose: 100.0 mg/kg/injection, schedule: Q04DX002 (ip), vehicle: saline with Tween-80 95 % of control and 96 % of control | dose: 200.0 mg/kg/injection, schedule: Q04DX002 (ip), vehicle: saline with Tween-80 96 % of control and 88 % of control
